Results: ChEMBL document CHEMBL5030563, “Structure-Based Design of Dual-Acting Compounds Targeting Adenosine A2A Receptor and Histone Deacetylase as Novel Tumor Immunotherapeutic Agents” (J Med Chem, 2021)

Legend:
[1] = Cmax in ICR mouse at 20 mg/kg, ip up to 24 hrs by LC-MS/MS analysis; format: ADME, organism-based; parameters: route intraperitoneal, dose 20 mg/kg, time <=24; details: in vivo
Histone deacetylase 7 = target: T1, Histone deacetylase 7 (Homo sapiens, UniProt Q8WUI4); assay: Inhibition of HDAC7 (unknown origin) assessed as release of 7-amino-4-methylcoumarin incubated in room temperature for 15 min measured by Spectra max microtitre plate reader
T1 sequence (Q8WUI4 whole entry): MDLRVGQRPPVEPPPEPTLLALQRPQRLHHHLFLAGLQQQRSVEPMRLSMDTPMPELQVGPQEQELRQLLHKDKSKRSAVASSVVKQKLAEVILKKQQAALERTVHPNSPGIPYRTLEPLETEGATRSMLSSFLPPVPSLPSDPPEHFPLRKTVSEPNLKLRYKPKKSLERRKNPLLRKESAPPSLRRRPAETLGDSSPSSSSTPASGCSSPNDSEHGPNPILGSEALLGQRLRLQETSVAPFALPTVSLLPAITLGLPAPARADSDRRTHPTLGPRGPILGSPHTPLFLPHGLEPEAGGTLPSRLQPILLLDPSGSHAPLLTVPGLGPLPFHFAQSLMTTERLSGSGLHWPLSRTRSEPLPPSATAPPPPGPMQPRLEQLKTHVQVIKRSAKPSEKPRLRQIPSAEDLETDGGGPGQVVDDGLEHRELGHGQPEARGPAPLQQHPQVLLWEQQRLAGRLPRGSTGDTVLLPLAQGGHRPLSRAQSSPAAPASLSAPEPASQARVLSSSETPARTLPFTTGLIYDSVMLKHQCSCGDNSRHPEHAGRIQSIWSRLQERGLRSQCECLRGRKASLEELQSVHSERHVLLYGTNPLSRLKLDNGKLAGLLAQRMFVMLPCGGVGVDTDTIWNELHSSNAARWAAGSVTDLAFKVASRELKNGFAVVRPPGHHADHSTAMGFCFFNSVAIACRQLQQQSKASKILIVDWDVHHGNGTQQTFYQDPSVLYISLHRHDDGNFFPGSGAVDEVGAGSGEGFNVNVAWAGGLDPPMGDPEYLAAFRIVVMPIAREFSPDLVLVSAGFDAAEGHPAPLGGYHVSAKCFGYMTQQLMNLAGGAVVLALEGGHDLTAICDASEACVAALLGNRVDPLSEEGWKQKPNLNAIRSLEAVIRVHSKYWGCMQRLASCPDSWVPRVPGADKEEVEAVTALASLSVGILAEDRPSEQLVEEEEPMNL

[2] = MRT in ICR mouse at 20 mg/kg, ip up to 24 hrs by LC-MS/MS analysis; format: ADME, organism-based; details: in vivo
[3] = Tmax in ICR mouse at 20 mg/kg, po by LC-MS/MS analysis; format: ADME, organism-based; details: in vivo
Adenosine receptor A1 = target: T2, Adenosine receptor A1 (Homo sapiens, UniProt P30542); assay: Displacement of [3H]DPCPX from human adenosine A1 receptor membrane (unknown origin) measured after 60 mins by scintillation counting analysis; format: cell membranes
T2 sequence (P30542 whole entry): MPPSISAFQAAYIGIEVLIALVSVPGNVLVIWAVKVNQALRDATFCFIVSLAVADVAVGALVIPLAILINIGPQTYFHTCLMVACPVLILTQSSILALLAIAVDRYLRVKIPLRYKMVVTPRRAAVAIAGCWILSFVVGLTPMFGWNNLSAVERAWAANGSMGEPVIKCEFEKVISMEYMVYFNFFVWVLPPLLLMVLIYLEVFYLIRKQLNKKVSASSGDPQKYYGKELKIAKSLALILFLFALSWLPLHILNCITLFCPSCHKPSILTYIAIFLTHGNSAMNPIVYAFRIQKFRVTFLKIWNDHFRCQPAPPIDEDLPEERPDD

[4] = target: T3, Polyamine deacetylase HDAC10 (Homo sapiens, UniProt Q969S8); assay: Inhibition of HDAC10 (unknown origin) assessed as release of 7-amino-4-methylcoumarin incubated in room temperature for 15 min measured by Spectra max microtitre plate reader
T3 sequence (Q969S8 whole entry): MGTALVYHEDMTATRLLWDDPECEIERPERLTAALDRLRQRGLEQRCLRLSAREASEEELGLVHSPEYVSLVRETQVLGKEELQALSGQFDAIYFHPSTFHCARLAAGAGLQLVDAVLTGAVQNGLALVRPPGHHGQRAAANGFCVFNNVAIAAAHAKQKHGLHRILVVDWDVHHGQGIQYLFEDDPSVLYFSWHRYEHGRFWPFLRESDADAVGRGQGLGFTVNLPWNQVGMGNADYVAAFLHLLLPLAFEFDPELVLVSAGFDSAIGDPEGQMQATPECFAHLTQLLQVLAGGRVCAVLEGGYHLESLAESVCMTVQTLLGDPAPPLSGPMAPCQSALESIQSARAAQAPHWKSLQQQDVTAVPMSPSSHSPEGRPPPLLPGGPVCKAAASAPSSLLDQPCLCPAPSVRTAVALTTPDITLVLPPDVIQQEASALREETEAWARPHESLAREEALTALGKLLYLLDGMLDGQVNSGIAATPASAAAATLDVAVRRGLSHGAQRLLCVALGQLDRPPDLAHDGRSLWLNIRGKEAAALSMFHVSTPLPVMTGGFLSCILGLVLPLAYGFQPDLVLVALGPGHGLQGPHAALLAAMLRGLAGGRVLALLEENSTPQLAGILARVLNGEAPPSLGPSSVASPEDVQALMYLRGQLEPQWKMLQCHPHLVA

Histone deacetylase 3 = Histone deacetylase 3 (Homo sapiens, UniProt O15379); assay: Inhibition of HDAC3 (unknown origin) assessed as release of 7-amino-4-methylcoumarin incubated in room temperature for 15 min measured by Spectra max microtitre plate reader
Chain of Histone deacetylase 3 (O15379 whole entry): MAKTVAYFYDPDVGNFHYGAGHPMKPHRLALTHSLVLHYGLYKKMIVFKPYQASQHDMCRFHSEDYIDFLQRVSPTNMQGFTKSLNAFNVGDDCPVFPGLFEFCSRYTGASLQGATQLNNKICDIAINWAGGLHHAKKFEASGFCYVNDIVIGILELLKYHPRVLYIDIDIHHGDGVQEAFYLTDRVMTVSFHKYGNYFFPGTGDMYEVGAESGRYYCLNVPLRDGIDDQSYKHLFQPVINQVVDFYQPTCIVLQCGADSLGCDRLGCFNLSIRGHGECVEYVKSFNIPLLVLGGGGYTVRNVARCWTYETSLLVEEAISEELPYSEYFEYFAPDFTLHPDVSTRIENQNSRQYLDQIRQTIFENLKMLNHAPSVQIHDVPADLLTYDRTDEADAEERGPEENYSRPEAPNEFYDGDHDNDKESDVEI

MC-38 [5] = assay: Antitumour activity against mouse MC38 cells in C57BL/6 mouse assessed as tumour growth inhibition at 50 mg/kg, ip, bid measured after 9 days relative to control; format: functional; details: MC-38, ip, 216 h, time 9 day, read-out: TGI
Histone deacetylase 2 = Histone deacetylase 2 (Homo sapiens, UniProt Q92769); assay: Inhibition of HDAC2 (unknown origin) assessed as release of 7-amino-4-methylcoumarin incubated in room temperature for 15 min measured by Spectra max microtitre plate reader
Chain of Histone deacetylase 2 (Q92769 whole entry): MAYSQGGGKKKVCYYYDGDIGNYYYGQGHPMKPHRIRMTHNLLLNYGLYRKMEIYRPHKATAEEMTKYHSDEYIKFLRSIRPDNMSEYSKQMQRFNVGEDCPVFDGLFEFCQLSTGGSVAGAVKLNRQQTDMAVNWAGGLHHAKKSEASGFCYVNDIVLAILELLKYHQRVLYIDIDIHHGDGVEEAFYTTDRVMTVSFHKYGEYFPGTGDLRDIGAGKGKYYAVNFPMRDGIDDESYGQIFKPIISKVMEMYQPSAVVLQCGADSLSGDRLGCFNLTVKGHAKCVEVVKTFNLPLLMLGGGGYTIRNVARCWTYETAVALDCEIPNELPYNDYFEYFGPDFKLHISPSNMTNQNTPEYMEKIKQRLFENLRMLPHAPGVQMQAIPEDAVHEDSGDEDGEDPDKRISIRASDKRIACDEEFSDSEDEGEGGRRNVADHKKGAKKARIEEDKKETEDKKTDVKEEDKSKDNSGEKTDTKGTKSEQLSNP

[6] = Half life in ICR mouse at 20 mg/kg, po by LC-MS/MS analysis; format: ADME, organism-based; details: in vivo
[7] = AUC (0 to […]) in ICR mouse at 5 mg/kg, iv up to 24 hrs by LC-MS/MS analysis; format: ADME, organism-based; parameters: route intravenous, dose 5 mg/kg, time <=24; details: in vivo
Histone deacetylase 5 = Histone deacetylase 5 (Homo sapiens, UniProt Q9UQL6); assay: Inhibition of HDAC5 (unknown origin) assessed as release of 7-amino-4-methylcoumarin incubated in room temperature for 15 min measured by Spectra max microtitre plate reader
Chain of Histone deacetylase 5 (Q9UQL6 whole entry): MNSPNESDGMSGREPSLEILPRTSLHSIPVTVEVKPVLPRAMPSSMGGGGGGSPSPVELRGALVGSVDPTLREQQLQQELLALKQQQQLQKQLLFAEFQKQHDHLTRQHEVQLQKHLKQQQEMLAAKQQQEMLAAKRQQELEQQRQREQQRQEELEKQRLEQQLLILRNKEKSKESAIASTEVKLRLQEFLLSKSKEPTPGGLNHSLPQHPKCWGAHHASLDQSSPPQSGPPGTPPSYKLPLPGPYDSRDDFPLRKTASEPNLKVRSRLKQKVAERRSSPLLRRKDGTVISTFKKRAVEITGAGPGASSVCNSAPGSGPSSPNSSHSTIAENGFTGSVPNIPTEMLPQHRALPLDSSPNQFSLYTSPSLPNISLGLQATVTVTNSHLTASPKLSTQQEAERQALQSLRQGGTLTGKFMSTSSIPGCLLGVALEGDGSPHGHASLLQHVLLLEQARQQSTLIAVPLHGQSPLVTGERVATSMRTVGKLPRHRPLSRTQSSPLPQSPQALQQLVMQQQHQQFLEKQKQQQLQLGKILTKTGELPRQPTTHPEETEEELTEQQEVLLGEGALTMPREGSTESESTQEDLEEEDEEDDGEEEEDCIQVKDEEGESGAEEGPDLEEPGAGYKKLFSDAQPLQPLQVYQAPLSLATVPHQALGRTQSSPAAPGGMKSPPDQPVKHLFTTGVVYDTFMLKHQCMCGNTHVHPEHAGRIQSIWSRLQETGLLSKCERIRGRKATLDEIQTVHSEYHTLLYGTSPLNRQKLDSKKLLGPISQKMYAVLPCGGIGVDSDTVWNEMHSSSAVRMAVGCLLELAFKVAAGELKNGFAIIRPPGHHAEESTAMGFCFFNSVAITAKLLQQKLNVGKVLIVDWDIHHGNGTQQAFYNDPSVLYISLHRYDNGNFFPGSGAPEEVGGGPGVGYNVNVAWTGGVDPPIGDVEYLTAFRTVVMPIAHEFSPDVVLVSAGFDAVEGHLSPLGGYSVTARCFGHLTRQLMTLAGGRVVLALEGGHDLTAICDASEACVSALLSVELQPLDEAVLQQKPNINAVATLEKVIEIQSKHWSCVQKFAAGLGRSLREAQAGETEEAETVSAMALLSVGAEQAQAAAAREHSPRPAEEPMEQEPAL

[8] = Initial plasma concentration in ICR mouse at 5 mg/kg, iv up to 24 hrs by LC-MS/MS analysis; format: ADME, organism-based
MC-38 [9] = assay: Antiproliferative activity against mouse MC38 cells measured after 72 hrs by CCK8 assay; format: functional; details: Mus musculus, MC-38
[10] = Elimination rate constant in ICR mouse at 5 mg/kg, iv up to 24 hrs by LC-MS/MS analysis; format: ADME, organism-based; details: in vivo
[11] = Cmax in ICR mouse at 5 mg/kg, iv up to 24 hrs by LC-MS/MS analysis; format: ADME, organism-based; parameters: route intravenous, dose 5 mg/kg, time <=24; details: in vivo

## Nc1ccccc1NC(=O)c1ccc(CCn2ncc3c2nc(N)n2nc(-c4ccco4)nc32)cc1
[1]
  Cmax: 2160 ng/mL
Histone deacetylase 7
  IC50: > 10000 nM
[2]
  MRT: 2.61 h
[3]
  Tmax: 0.25 h
Adenosine receptor A1
  Ki: 71.2 nM
[4]
  IC50: 632 nM
Histone deacetylase 3
  IC50: 449 nM
MC-38 [5]
  inhibition in vivo at 50 mg/kg: 81%
Histone deacetylase 2
  IC50: 179 nM
[6]
  half-life: 1.97 h
[7]
  AUC(0-t): 1460 ng·h/mL
Histone deacetylase 5
  IC50: > 10000 nM
[8]
  C0 at 24 h: 4580 ng/mL
MC-38 [9]
  GI50: 6200 nM
[10]
  k el at 24 h: 0.000678 s⁻¹
[11]
  Cmax: 3320 ng/mL
